In ChEMBL document CHEMBL5647692, “The novel dual PI3K/mTOR inhibitor NVP-BGT226 displays cytotoxic activity in both normoxic and hypoxic hepatocarcinoma cells” (Oncotarget, 2015):
Activity calls are given as the source filed them. The calls are words filed in the database; no cut-off is given here.

Columns and labels:
[1] = Inhibition of PI3K/Akt/mTOR signaling pathway in human SNU-449 cells assessed as reduction in phosphorylation of GSK3 alpha/beta incubated for 1 hr under normoxia condition by Western blotting analysis; format: cell-based; details: dose 0.25-1 µM
[2] = Inhibition of PI3K/Akt/mTOR signaling pathway in human Mahlavu cells assessed as reduction in phosphorylation of Akt at 0.001 to 0.01 uM incubated for 1 hr under hypoxia condition by Western blotting analysis; format: cell-based; details: dose 0.001-0.01 µM
[3] = Inhibition of PI3K/Akt/mTOR signaling pathway in human SNU-475 cells assessed as reduction in phosphorylation of Akt at 0.001 to 0.01 uM incubated for 1 hr under hypoxia condition by Western blotting analysis; format: cell-based; details: dose 0.001-0.01 µM
[4] = test system: Hep 3B2; assay: Induction of apoptosis in human Hep3B cells assessed as cleaved PARP level at 0.5 uM incubated for 24 hrs by Western blotting analysis; format: functional, cell-based
[5] = target: Hypoxia-inducible factor 1-alpha (Homo sapiens) (UniProt Q16665); assay: Inhibition of HIF-1alpha in human Hep3B cells incubated for 6 hrs under hypoxia condition by Western blot analysis; format: cell-based; details: dose 0.01-0.1 µM
Hypoxia-inducible factor 1-alpha (Homo sapiens), sequence (Q16665 whole entry, looked up): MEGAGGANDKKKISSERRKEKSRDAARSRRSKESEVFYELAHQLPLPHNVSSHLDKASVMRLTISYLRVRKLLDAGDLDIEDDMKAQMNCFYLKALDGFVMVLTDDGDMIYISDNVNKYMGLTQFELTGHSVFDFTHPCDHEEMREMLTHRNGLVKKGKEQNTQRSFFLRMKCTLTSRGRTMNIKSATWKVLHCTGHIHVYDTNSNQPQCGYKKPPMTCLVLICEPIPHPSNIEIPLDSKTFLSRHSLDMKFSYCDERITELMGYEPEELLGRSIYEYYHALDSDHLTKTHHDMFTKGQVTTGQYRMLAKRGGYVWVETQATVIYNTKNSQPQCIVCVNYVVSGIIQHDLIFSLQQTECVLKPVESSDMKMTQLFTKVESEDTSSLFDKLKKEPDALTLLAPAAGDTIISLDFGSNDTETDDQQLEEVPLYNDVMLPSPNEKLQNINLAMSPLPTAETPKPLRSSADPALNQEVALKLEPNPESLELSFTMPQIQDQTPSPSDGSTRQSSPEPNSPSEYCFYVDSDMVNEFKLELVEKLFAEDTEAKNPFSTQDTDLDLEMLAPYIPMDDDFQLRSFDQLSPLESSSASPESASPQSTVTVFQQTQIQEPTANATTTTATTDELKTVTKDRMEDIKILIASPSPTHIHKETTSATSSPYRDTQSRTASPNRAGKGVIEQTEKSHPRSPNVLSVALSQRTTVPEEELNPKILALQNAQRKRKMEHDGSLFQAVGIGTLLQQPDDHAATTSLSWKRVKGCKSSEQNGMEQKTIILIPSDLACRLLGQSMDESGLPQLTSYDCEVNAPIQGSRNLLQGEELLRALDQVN

[6] = Inhibition of PI3K/Akt/mTOR signaling pathway in human HepG2 cells assessed as reduction in phosphorylation of Akt incubated for 1 hr under normoxia condition by Western blotting analysis; format: cell-based; details: dose 0.25-1 µM
[7] = test system: Mahlavu; assay: Induction of apoptosis in human Mahlavu cells assessed as late apoptotic cells at 0.66 uM incubated for 24 hrs by Annexin-V/7-AAD staining based muse cell analyzer method (reference value: 2.24 %); format: functional
[8] = test system: Mahlavu; assay: Cytotoxicity against human Mahlavu cells assessed as reduction in cell viability at 0.5 uM incubated for 24 hrs in presence of 3-Methyladenine by MTT assay; format: functional, cell-based
[9] = Inhibition of PI3K/Akt/mTOR signaling pathway in human Hep3B cells assessed as reduction in phosphorylation of mTORC1 substrate S6 incubated for 1 hr under normoxia condition by Western blotting analysis; format: cell-based; details: dose 0.25-1 µM
[10] = test system: SNU-475; assay: Cytotoxicity against human SNU-475 cells assessed as reduction in cell viability incubated for 24 hrs under hypoxia condition by MTT assay; format: functional, cell-based
[11] = test system: Mahlavu; assay: Induction of apoptosis in human Mahlavu cells assessed as necrotic cells at IC50 incubated for 24 hrs in presence of Z-VAD-fmk by Annexin-V/7-AAD staining based muse cell analyzer method (reference value: 0.67 %); format: functional
[12] = test system: HepG2; assay: Cytotoxicity against human HepG2 cells assessed as reduction in cell viability incubated for 48 hrs by MTT assay; format: functional, cell-based; details: HepG2, 48 h
[13] = test system: Mahlavu; assay: Induction of autophagy in human Mahlavu cells assessed as increased expression of LC3 A/B II at 0.5 uM incubated for 24 hrs in presence of chloroquine under hypoxia condition by Western blot analysis; format: functional, cell-based
[14] = test system: SNU-475; assay: Cytotoxicity against human SNU-475 cells assessed as reduction in cell viability at 0.5 uM incubated for 24 hrs in presence of chloroquine under hypoxia condition by MTT assay; format: functional, cell-based
[15] = test system: Mahlavu; assay: Induction of apoptosis in human Mahlavu cells assessed as cleaved Caspase 9 level at 0.5 uM incubated for 24 hrs by Western blotting analysis; format: functional, cell-based
[16] = test system: Mahlavu; assay: Cytotoxicity against human Mahlavu cells assessed as reduction in cell viability incubated for 48 hrs by MTT assay; format: functional, cell-based
[17] = test system: Mahlavu; assay: Cytotoxicity against human Mahlavu cells assessed as reduction in cell viability at 0.5 uM incubated for 24 hrs in presence of chloroquine under hypoxia condition by MTT assay; format: functional, cell-based
[18] = Inhibition of PI3K/Akt/mTOR signaling pathway in human SNU-449 cells assessed as reduction in phosphorylation of mTORC1 substrate S6 incubated for 1 hr under normoxia condition by Western blotting analysis; format: cell-based; details: dose 0.25-1 µM
[19] = test system: SNU-449; assay: Induction of apoptosis in human SNU-449 cells assessed as necrotic cells at 1.5 uM incubated for 24 hrs by Annexin-V/7-AAD staining based muse cell analyzer method (reference value: 0.95 %); format: functional
[20] = test system: SNU-449; assay: Cytotoxicity against human SNU-449 cells assessed as reduction in cell viability incubated for 48 hrs by MTT assay; format: functional, cell-based; details: SNU-449, 48 h
[21] = Inhibition of PI3K/Akt/mTOR signaling pathway in human SNU-449 cells assessed as reduction in phosphorylation of Akt at 0.001 to 0.01 uM incubated for 1 hr under hypoxia condition by Western blotting analysis; format: cell-based; details: dose 0.001-0.01 µM
[22] = Inhibition of PI3K/Akt/mTOR signaling pathway in human SNU-475 cells assessed as reduction in phosphorylation of mTORC1/2 incubated for 1 hr under normoxia condition by Western blotting analysis; format: cell-based; details: dose 0.25-1 µM
[23] = Inhibition of PI3K/Akt/mTOR signaling pathway in human HepG2 cells assessed as reduction in phosphorylation of mTORC1/2 incubated for 1 hr under normoxia condition by Western blotting analysis; format: cell-based; details: dose 0.25-1 µM
[24] = test system: Mahlavu; assay: Induction of autophagy in human Mahlavu cells assessed as increased expression of LC3A/B II level incubated for 24 hrs under hypoxia condition by Western blot analysis; format: functional, cell-based; details: dose 0.1-0.5 µM
[25] = Inhibition of PI3K/Akt/mTOR signaling pathway in human HepG2 cells assessed as reduction in phosphorylation of GSK3 alpha/beta incubated for 1 hr under normoxia condition by Western blotting analysis; format: cell-based; details: dose 0.25-1 µM
[26] = Inhibition of PI3K/Akt/mTOR signaling pathway in human Mahlavu cells assessed as reduction in S6 phosphorylation at 1 to 10 nM incubated for 1 hr under normoxia condition by Western blotting analysis; format: cell-based; details: dose 1-10 nM
[27] = Inhibition of PI3K/Akt/mTOR signaling pathway in human SNU-475 cells assessed as reduction in S6 phosphorylation at 1 to 10 nM incubated for 1 hr under normoxia condition by Western blotting analysis; format: cell-based; details: dose 1-10 nM
[28] = Inhibition of PI3K/Akt/mTOR signaling pathway in human SNU-475 cells assessed as reduction in S6 phosphorylation at 1 to 10 nM incubated for 1 hr under hypoxia condition by Western blotting analysis; format: cell-based; details: dose 1-10 nM
[29] = test system: SNU-475; assay: Cytotoxicity against human SNU-475 cells assessed as reduction in cell viability at 0.5 to 5 uM incubated for 24 hrs by MTT assay; format: functional, cell-based; details: dose 0.5-5 µM
[30] = test system: Mahlavu; assay: Induction of apoptosis in human Mahlavu cells assessed as early apoptotic cells at 0.66 uM incubated for 24 hrs by Annexin-V/7-AAD staining based muse cell analyzer method (reference value: 6.57 %); format: functional
[31] = test system: SNU-475; assay: Induction of apoptosis in human SNU-475 cells incubated for 24 hrs by Annexin-V/7-AAD staining based muse cell analyzer method; format: functional; details: dose 0.01-0.5 µM
[32] = test system: Mahlavu; assay: Induction of autophagy in human Mahlavu cells assessed as decreased expression of SQSTM1/p62 level incubated for 24 hrs under hypoxia condition by Western blot analysis; format: functional, cell-based; details: dose 0.1-0.5 µM
[33] = test system: SNU-449; assay: Induction of apoptosis in human SNU-449 cells assessed as viable cells at IC50 concentration incubated for 24 hrs in presence of Z-VAD-fmk by Annexin-V/7-AAD staining based muse cell analyzer method (reference value: 90.07 %); format: functional
[34] = test system: Mahlavu; assay: Induction of autophagy in human Mahlavu cells assessed as increase in lipidation of LC3A/B II level at 0.5 uM incubated for 24 hrs in presence of chloroquine by Western blot analysis; format: functional, cell-based

For COc1ccc(-c2ccc3ncc4c(c3c2)n(-c2ccc(N3CCNCC3)c(C(F)(F)F)c2)c(=O)n4C)cn1 [BGT-226 FREE BASE], the inhibition [1] was “Dose-Dependent Effect”, the inhibition [2] was “Active” and the inhibition [3] was “Active”. The Activity [4] was “Active”, the inhibition [5] was “Dose-Dependent Effect” and the inhibition [6] was “Dose-Dependent Effect”. For the same molecule, the Activity [7] was 1.99%, the Activity [8] was “Active” and the inhibition [9] was “Dose-Dependent Effect”. The Activity [10] was “Active”, the Activity [11] was 0.54% and the IC50 [12] was 1350 nM. The Activity [13] was “Active”, the Activity [14] was “Active” and the Activity [15] was “Active”. The IC50 [16] was 550 nM, the Activity [17] was “Active” and the inhibition [18] was “Dose-Dependent Effect”. The Activity [19] was 1.02%, the IC50 [20] was 510 nM and the inhibition [21] was “Active”. The inhibition [22] was “Dose-Dependent Effect”, the inhibition [23] was “Dose-Dependent Effect” and the Activity [24] was “Dose-Dependent Effect”. For the same molecule, the inhibition [25] was “Dose-Dependent Effect”, the inhibition [26] was “Active” and the inhibition [27] was “Active”. The inhibition [28] was “Active”, the Activity [29] was “Active” and the Activity [30] was 47.22%. For the same molecule, the Activity [31] was “Dose-Dependent Effect”, the Activity [32] was “Dose-Dependent Effect” and the Activity [33] was 83.56%. The Activity [34] was “Active”.
